Patent US20060122267A1, “Compositions and methods for attenuating mitochondria-mediated cell injury” (priority 2003, published 2006)

What was measured:
rat heart mitochondria = assay: Chemiluminescent NO analysis of total S-nitrosothiol in treated mitochondria; type: biochemical
Protocol: At concentrations above 250 μM, secondary reactions such as free S-nitrosothiol or NO2^− formation were observed.
(§1) Rat heart mitochondria were isolated using differential centrifugation (Tompkins, et al. (2005) Biochim. Biophys. Acta PMID: 16278076). Protein was determined by the Folin-phenol method (Lowry, et al. (1951) J. Bio. Chem. 193:265-75) against a standard curve constructed using bovine serum albumin. Mitochondrial incubations and all subsequent steps were performed in the dark. One mg of mitochondrial protein was suspended in 1 mL of mitochondrial respiration buffer (Tompkins, et al. (2005) supra) containing respiratory substrates glutamate (5 mM), malate (2.5 mM) and succinate (5 mM). […] Samples were centrifuged (5 minutes, 14,000×g), and supernatants removed. The pellets were then resuspended in 1 mL of respiration buffer, and centrifuged again. Pellets were frozen in liquid N2 for subsequent analysis. For ONOO^− treatments, 4 μL of 25 mM ONOO^− stock (100 μM final concentration) was added the cap of the reaction tube, the cap quickly closed and the tube shaken immediately. The process was then repeated twice at 30 second intervals, for a total of 3 additions. Mitochondria were then pelleted, washed, and frozen as for S-nitrosoglutathione samples. Complex I activity was assayed as the rotenone-sensitive oxidation of NADH, at 340 nm in the presence of coenzyme Q1 (Borutaite, et al. (2000) supra). Complex IV was assayed by monitoring the cyanide-sensitive first-order oxidation of reduced cytochrome c, at 550 nm according to established methods (Cleeter, et al. (1994) supra).
Chemiluminescent analysis of S-nitrosothiol content was performed on samples originating from blue-native gels, intact mitochondria and SUPEROSE™ 6 chromatography fractions, according to known methodologies (Yang, et al. (2003) Free Radic. Res. 37:1-10). […] Each sample was run in duplicate and quantified using a standard curve created with known concentrations of NaNO2.

mitochondrial proteins = assay: Biotin-switch analysis of mitochondrial protein S-nitrosation; type: biochemical, rat
Protocol: as §1
For biotin-switch analysis, intact mitochondrial pellets (1 mg protein solubilized in extraction buffer) or chromatography column fractions were analyzed in accordance with known methods (Jaffrey & Snyder (2001) supra). Samples were separated in duplicate on non-reducing SDS-PAGE gels; half the gel was stained with COOMASSIE® blue, and the other half blotted and probed with streptavidin-HRP and ECL™ detection (GE biosciences). Blots and stained gels were aligned, and S-nitrosated proteins excised, trypsinized, and identified by peptide mass fingerprinting. Mass spectra (MALDI-TOF) were analyzed using the MASCOT™ algorithm available on the world-wide web at matrixscience.com.

[1] = molecular target: T1, 75 kDa subunit of complex I (Rattus norvegicus, UniProt Q66HF1); assay: SUPEROSE 6 chromatography S-nitrosothiol profile with biotin switch identification of S-nitrosated peptide; type: biochemical; settings: S-nitrosoglutathione-treated mitochondria
T1 construct: Mitochondrial protein (3 mg) was extracted in 300 μL of column running buffer; from tissue; host or cells: rat heart mitochondria, SUPEROSE 6 column fraction enriched in complex I
Description: To simplify separation of complex I, SUPEROSE™ 6 gel filtration chromatography was employed as a liquid phase high-throughput separation method (Danial, et al. (2003) Nature 424:952-6). Chemiluminescent analysis of column fractions was then used to construct an S-nitrosothiol profile. Most S-nitrosothiol concentrated in two regions of the chromatogram, eluting at ˜35% and 85% of the column bed volume.
The fraction with most S-nitrosothiol content was enriched in complex I activity, and was then further analyzed by biotin switch assay to identify S-nitrosated peptides (i.e., which of the 46 subunits in complex I was S-nitrosated). […]
A 25 cm×1 cm BIO-RAD® glass ECONO-COLUMN™ was used, with appropriate flow adaptor (BIO-RAD®, Hercules Calif.) and a MASTERFLEX™ peristaltic pump (Cole Parmer, Vernon Hills, Ill.). […] Fractions (200 μL) were collected, and their A280 measured to determine relative protein content. In addition, the S-nitrosothiol content and complex I activity of each fraction were analyzed as disclosed herein. […] Therefore, for data comparison the relative position of eluted column fractions was expressed as a percentage of the total column bed volume. […]
For biotin-switch analysis, intact mitochondrial pellets (1 mg protein solubilized in extraction buffer) or chromatography column fractions were analyzed in accordance with known methods (Jaffrey & Snyder (2001) supra). […]

T1 sequence (Q66HF1 24-727, one chain of several): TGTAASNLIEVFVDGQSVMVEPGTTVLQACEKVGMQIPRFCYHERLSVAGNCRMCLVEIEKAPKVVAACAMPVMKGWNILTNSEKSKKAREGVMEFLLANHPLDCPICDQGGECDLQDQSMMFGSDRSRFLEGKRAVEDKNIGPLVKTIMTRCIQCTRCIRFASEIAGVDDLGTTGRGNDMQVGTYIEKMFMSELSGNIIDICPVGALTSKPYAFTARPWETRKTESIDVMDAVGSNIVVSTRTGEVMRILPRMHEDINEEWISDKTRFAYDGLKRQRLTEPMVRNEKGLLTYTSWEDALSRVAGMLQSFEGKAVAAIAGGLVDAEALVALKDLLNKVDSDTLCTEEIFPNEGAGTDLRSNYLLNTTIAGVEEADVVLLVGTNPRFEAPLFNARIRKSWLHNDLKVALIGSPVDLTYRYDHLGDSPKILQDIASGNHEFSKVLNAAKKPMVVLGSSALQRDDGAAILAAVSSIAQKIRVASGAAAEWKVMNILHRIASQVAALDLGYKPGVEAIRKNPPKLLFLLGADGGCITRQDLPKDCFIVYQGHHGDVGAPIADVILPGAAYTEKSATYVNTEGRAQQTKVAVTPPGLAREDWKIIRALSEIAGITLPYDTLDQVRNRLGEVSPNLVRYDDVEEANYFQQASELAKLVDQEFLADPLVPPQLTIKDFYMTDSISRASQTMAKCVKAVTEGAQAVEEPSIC

Structure (SMILES): N[C@@H](CCC(=O)N[C@@H](CSN=O)C(=O)NCC(=O)O)C(=O)O [S-nitrosoglutathione]
- concentration above which secondary reactions (free S-nitrosothiol or NO2- formation) were observed (rat heart mitochondria): above 250 μM
- total S-nitrosothiol (rat heart mitochondria; 100 μM treatment): ~1700 pmol/mg mitochondrial protein
- concentration approaching saturation of total S-nitrosothiol (free plus protein-bound) (rat heart mitochondria; range 10 μM to 1 mM): ~300 µM
- S-nitrosation of entire mitochondrial protein extract, comparison of NO donors (mitochondrial proteins; S-nitrosoglutathione 1 mM, DETA-NONOate 2 mM, ONOO- 3 additions of 100 μM, 37° C., 40 minutes): far more S-nitrosation than DETA-NONOate or ONOO^−
- concentration at which formation of protein bound S-nitrosothiol saturates (mitochondrial proteins; biotin-switch and chemiluminescent data together): ~250 µM
- concentration at which plateau of mitochondrial protein S-nitrosation is reached (mitochondrial proteins; dose response over 50-250 μM): ~200 µM
- share of total protein-bound S-nitrosothiol contained in the 75 kDa subunit of complex I [1]: ~20%
